Measurements published in patent publication US20010006697A1, “Composition and method for producing low cholesterol eggs” (priority 1997, published 2001).
Where “and” joins values, the source holds several entries; their conditions need not be identical. Equal entries are not always repeated. Where two headings read alike, the source gives them in different places. Marks after values point to notes of the source that are not given here.

How the values were obtained:
[1] = tested on: laying hens; assay: Egg production, egg weights and yolk weights of statin-treated laying hens; format: in vivo, White Leghorn hens
Experimental: Hens were treated as described in Example 1. Egg yolk was weighed as outlined in Example 2.

[2] = tested on: laying hens; assay: Liver cholesterol content; conditions: day 35
[3] = tested on: laying hens; conditions: 0.03% or 0.06% of diet; day 35
[4] = tested on: laying hens; conditions: 0.03% or 0.06% of diet; day 35; remark: listed apart in the source
[5] = tested on: plasma VLDL particles; conditions: day 35
[6] = tested on: laying hens; assay: Yolk cholesterol contents of eggs from statin-treated laying hens; format: in vivo, White Leghorn hens
Experimental: Agric. […] Hens were treated as described in Example 1. […] The eggs were hard-cooked, and the yolks were separated, weighed, and crumbled. […] Agric. […] Egg homogenate filtrates were analyzed for cholesterol as described in Rudel, L. L. and Morris, M. D., J. Lipid Res. 14:364-366 (1973).

[7] = tested on: microsomal triglyceride transport protein (MTP) large subunit mRNA; conditions: normalized by 18S rRNA; day 35
[8] = Liver weight of statin-treated laying hens; conditions: day 35
[9] = tested on: apolipoprotein B (apoB) mRNA; assay: Northern blot of liver mRNA: apoB; format: in vivo, White Leghorn hens; conditions: normalized by 18S rRNA; day 35
Source text: Endocrinol. […] Endocrinol.

[10] = tested on: plasma VLDL particles; conditions: day 35; remark: listed apart in the source
[11] = 0.03% of diet, Overall (weeks 1-5)
[12] = 0.06% of diet, Overall (weeks 1-5)
[13] = 0.06% of diet, week 5 (maximal reduction for simvastatin, lovastatin)

## CC[C@H](C)C(=O)O[C@H]1C[C@@H](C)C=C2C=C[C@H](C)[C@H](CC[C@@H]3C[C@@H](O)CC(=O)O3)[C@H]21 [Lovastatin]
[1]; [11]
  Egg weight, g: 65.0 ± 1.4^a (155) g
  Hen-day egg production, %: 88.6 ± 2.4^a (155) %
  Yolk weight, g: 17.7 ± 0.2^a (25) g
[1]; 0.03% of diet, Week 1
  Egg weight, g: 64.9 ± 0.7^a g
  Hen-day egg production, %: 91.4 ± 1.2^a %
  Yolk weight, g: 17.9 ± 0.7^a g
[1]; 0.03% of diet, Week 2
  Egg weight, g: 64.3 ± 0.8^a,b g
  Hen-day egg production, %: 88.6 ± 1.0^a %
  Yolk weight, g: 17.4 ± 0.8^a g
[1]; 0.03% of diet, Week 3
  Egg weight, g: 65.1 ± 0.7^a g
  Hen-day egg production, %: 85.7 ± 1.0^a %
  Yolk weight, g: 17.8 ± 0.5^a g
[1]; 0.03% of diet, Week 4
  Egg weight, g: 65.8 ± 0.6^a g
  Hen-day egg production, %: 88.6 ± 1.8^a %
  Yolk weight, g: 17.8 ± 0.4^a g
[1]; 0.03% of diet, Week 5
  Egg weight, g: 64.7 ± 0.7^a g
  Hen-day egg production, %: 88.6 ± 1.0^a %
  Yolk weight, g: 17.8 ± 0.5^a g
[1]; 0.03% or 0.06% of diet, P>0.05
  effect on production variables (egg production, egg weight, yolk weight): did not affect
[1]; [12]
  Egg weight, g: 63.8 ± 1.8^a (155) g
  Hen-day egg production, %: 88.6 ± 2.9^a (155) %
  Yolk weight, g: 17.4 ± 0.3^a (25) g
[1]; 0.06% of diet, Week 1
  Egg weight, g: 62.6 ± 1.9^a g
  Hen-day egg production, %: 88.6 ± 1.0^a,b %
  Yolk weight, g: 17.4 ± 1.0^a g
[1]; 0.06% of diet, Week 2
  Egg weight, g: 64.0 ± 0.7^a,b g
  Hen-day egg production, %: 85.7 ± 1.5^a,b %
  Yolk weight, g: 17.3 ± 0.7^a g
[1]; 0.06% of diet, Week 3
  Egg weight, g: 65.3 ± 1.1^a g
  Hen-day egg production, %: 88.6 ± 1.0^a %
  Yolk weight, g: 17.7 ± 0.6^a g
[1]; 0.06% of diet, Week 4
  Egg weight, g: 63.3 ± 0.8^b,c g
  Hen-day egg production, %: 88.6 ± 1.8^a %
  Yolk weight, g: 17.2 ± 0.9^a,b g
[1]; 0.06% of diet, Week 5
  Egg weight, g: 62.9 ± 0.8^a,b g
  Hen-day egg production, %: 91.4 ± 1.2^a %
  Yolk weight, g: 17.3 ± 0.7^a g
[2]; 0.03% of diet
  Liver Cholesterol mg/g liver: 3.0 ± 0.05^b,c mg/g liver
  Liver Cholesterol mg/liver: 95.7 ± 3.3^a mg/liver
[2]; 0.06% of diet
  Liver Cholesterol mg/g liver: 3.1 ± 0.07^b mg/g liver
  Liver Cholesterol mg/liver: 90.2 ± 3.6^a mg/liver
[3]
  effect on plasma triglycerides (plasma lipid variables): did not significantly affect
[4]
  effect on plasma total cholesterol (plasma lipid variables): did not significantly affect
[5]; 0.03% of diet
  Plasma VLDL particle Diameter nm: 35.5 ± 0.1^a,b nm
[5]; 0.06% of diet
  Plasma VLDL particle Diameter nm: 34.8 ± 0.1^a,b nm
[6]; 0.03% of diet, Week 0
  Yolk cholesterol content, mg cholesterol/g yolk: 11.0 ± 0.2^a mg cholesterol/g yolk
  Yolk cholesterol content, mg cholesterol/yolk: 195.7 ± 6.8^a mg cholesterol/yolk
[6]; 0.03% of diet, Week 1
  Yolk cholesterol content, mg cholesterol/g yolk: 10.7 ± 0.2^b mg cholesterol/g yolk
  Yolk cholesterol content, mg cholesterol/yolk: 192.2 ± 6.5^a mg cholesterol/yolk
[6]; 0.03% of diet, Week 2
  Yolk cholesterol content, mg cholesterol/g yolk: 11.1 ± 0.2^a,b mg cholesterol/g yolk
  Yolk cholesterol content, mg cholesterol/yolk: 193.8 ± 6.6^a mg cholesterol/yolk
[6]; 0.03% of diet, Week 3
  Yolk cholesterol content, mg cholesterol/g yolk: 10.8 ± 0.2^b mg cholesterol/g yolk
  Yolk cholesterol content, mg cholesterol/yolk: 192.3 ± 5.1^a mg cholesterol/yolk
[6]; 0.03% of diet, Week 4
  Yolk cholesterol content, mg cholesterol/g yolk: 10.9 ± 0.2^a,b mg cholesterol/g yolk
  Yolk cholesterol content, mg cholesterol/yolk: 193.9 ± 4.2^a mg cholesterol/yolk
[6]; 0.03% of diet, Week 5
  Yolk cholesterol content, mg cholesterol/g yolk: 10.8 ± 0.1^b mg cholesterol/g yolk
  Yolk cholesterol content, mg cholesterol/yolk: 193.6 ± 4.0^a,b mg cholesterol/yolk
[6]; 0.06% of diet, Week 0
  Yolk cholesterol content, mg cholesterol/g yolk: 10.9 ± 0.1^a mg cholesterol/g yolk
  Yolk cholesterol content, mg cholesterol/yolk: 197.8 ± 4.3^a mg cholesterol/yolk
[6]; 0.06% of diet, Week 1
  Yolk cholesterol content, mg cholesterol/g yolk: 10.7 ± 0.1^b mg cholesterol/g yolk
  Yolk cholesterol content, mg cholesterol/yolk: 185.5 ± 8.4^a,b mg cholesterol/yolk
[6]; 0.06% of diet, Week 2
  Yolk cholesterol content, mg cholesterol/g yolk: 10.8 ± 0.1^b,c mg cholesterol/g yolk
[6]; 0.06% of diet, Week 3
  Yolk cholesterol content, mg cholesterol/g yolk: 10.5 ± 0.1^b,c mg cholesterol/g yolk
  Yolk cholesterol content, mg cholesterol/yolk: 184.6 ± 5.1^a,b mg cholesterol/yolk
[6]; 0.06% of diet, Week 4
  Yolk cholesterol content, mg cholesterol/g yolk: 10.9 ± 0.2^a,b mg cholesterol/g yolk
  Yolk cholesterol content, mg cholesterol/yolk: 187.1 ± 7.2^a,b mg cholesterol/yolk
[6]; 0.06% of diet, Week 5
  Yolk cholesterol content, mg cholesterol/g yolk: 10.8 mg cholesterol/g yolk and 10.8 ± 0.1^b mg cholesterol/g yolk
  Yolk cholesterol content, mg cholesterol/yolk: 186.9 mg cholesterol/yolk and 186.9 ± 4.3^a,b mg cholesterol/yolk
[6]; [13]
  yolk cholesterol reduction from control on a per yolk (egg) basis: 7%
  yolk cholesterol reduction from control per g of yolk (mg/g basis): 7%
[7]
  hepatic MTP large subunit mRNA, linear contrasts (P≦0.05): lovastatin>atorvastatin
[8]; 0.03% of diet
  Liver Weight g: 31.4 ± 1.4^b g
  Liver Weight g/100 g BW: 1.81 ± 0.09^a,b g/100 g BW
[8]; 0.06% of diet
  Liver Weight g: 28.8 ± 0.9^b,c g
  Liver Weight g/100 g BW: 1.76 ± 0.05^b g/100 g BW
[9]
  hepatic apoB mRNA, linear contrasts (P≦0.05): control>lovastatin
[10]; 0.03% of diet
  Plasma VLDL composition: EC (esterified cholesterol): 0.06 ± 0.01^a,b %
  Plasma VLDL composition: PC (phosphatidylcholine): 11.99 ± 0.18^b %
  Plasma VLDL composition: PE (phosphatidylethanolamine): 3.76 ± 0.33^a %
  Plasma VLDL composition: Protein: 17.37 ± 0.70^a %
  Plasma VLDL composition: SM (sphingomyelin): 1.08 ± 0.31^a %
  Plasma VLDL composition: TG (triglyceride): 62.78 ± 1.01^a %
  Plasma VLDL composition: UC (unesterified cholesterol): 2.94 ± 0.11^a %
[10]; 0.06% of diet
  Plasma VLDL composition: EC (esterified cholesterol): 0.08 ± 0.02^a,b %
  Plasma VLDL composition: PC (phosphatidylcholine): 12.07 ± 0.82^b %
  Plasma VLDL composition: PE (phosphatidylethanolamine): 3.46 ± 0.93^a %
  Plasma VLDL composition: Protein: 19.96 ± 1.32^a %
  Plasma VLDL composition: SM (sphingomyelin): 0.66 ± 0.23^a %
  Plasma VLDL composition: TG (triglyceride): 60.74 ± 1.22^a %
  Plasma VLDL composition: UC (unesterified cholesterol): 3.03 ± 0.34^a %
